Assay results as given in the NIST ThermoML archive (doi:10.1016/j.jct.2017.03.006).

Experiment: xn = mol fraction of the nth substance listed
Settings: Liquid; for mass density: Vibrating tube method; for viscosity: Concentric cylinders viscometry

Cc1ccc(C)c(C)c1 [1,2,4-trimethylbenzene] + CCCCO
Settings	mass density [kg/m3]	viscosity [mPa·s]
273.15 K, 100 kPa, x2 = 0	891.7	–
273.15 K, 100 kPa, x2 = 0.1005	886.7	–
273.15 K, 100 kPa, x2 = 0.2261	880.3	–
273.15 K, 100 kPa, x2 = 0.2999	876.4	–
273.15 K, 100 kPa, x2 = 0.3966	870.8	–
273.15 K, 100 kPa, x2 = 0.5289	862.9	–
273.15 K, 100 kPa, x2 = 0.6367	855.6	–
273.15 K, 100 kPa, x2 = 0.7249	849.2	–
273.15 K, 100 kPa, x2 = 0.9131	833.3	–
273.15 K, 1000 kPa, x2 = 0	892.3	–
273.15 K, 1000 kPa, x2 = 0.1005	887.1	–
273.15 K, 1000 kPa, x2 = 0.2261	880.5	–
273.15 K, 1000 kPa, x2 = 0.2999	876.7	–
273.15 K, 1000 kPa, x2 = 0.3966	871.1	–
273.15 K, 1000 kPa, x2 = 0.5289	863.2	–
273.15 K, 1000 kPa, x2 = 0.6367	855.9	–
273.15 K, 1000 kPa, x2 = 0.7249	849.5	–
273.15 K, 1000 kPa, x2 = 0.7977	843.7	–
273.15 K, 1000 kPa, x2 = 0.9131	833.7	–
273.15 K, 5000 kPa, x2 = 0	894.6	–
273.15 K, 5000 kPa, x2 = 0.1005	889.5	–
273.15 K, 5000 kPa, x2 = 0.2261	883	–
273.15 K, 5000 kPa, x2 = 0.2999	879.2	–
273.15 K, 5000 kPa, x2 = 0.3966	873.6	–
273.15 K, 5000 kPa, x2 = 0.5289	865.7	–
273.15 K, 5000 kPa, x2 = 0.6367	858.5	–
273.15 K, 5000 kPa, x2 = 0.7249	852.1	–
273.15 K, 5000 kPa, x2 = 0.7977	846.3	–
273.15 K, 5000 kPa, x2 = 0.9131	836.3	–
273.15 K, 10000 kPa, x2 = 0	897.4	–
273.15 K, 10000 kPa, x2 = 0.1005	892.4	–
273.15 K, 10000 kPa, x2 = 0.2261	885.9	–
273.15 K, 10000 kPa, x2 = 0.2999	882.1	–
273.15 K, 10000 kPa, x2 = 0.3966	876.6	–
273.15 K, 10000 kPa, x2 = 0.5289	868.8	–
273.15 K, 10000 kPa, x2 = 0.6367	861.5	–
273.15 K, 10000 kPa, x2 = 0.7249	855.2	–
273.15 K, 10000 kPa, x2 = 0.7977	849.4	–
273.15 K, 10000 kPa, x2 = 0.9131	839.4	–
273.15 K, 20000 kPa, x2 = 0	902.8	–
273.15 K, 20000 kPa, x2 = 0.1005	897.9	–
273.15 K, 20000 kPa, x2 = 0.2261	891.4	–
273.15 K, 20000 kPa, x2 = 0.2999	887.7	–
273.15 K, 20000 kPa, x2 = 0.3966	882.2	–
273.15 K, 20000 kPa, x2 = 0.5289	874.4	–
273.15 K, 20000 kPa, x2 = 0.6367	867.2	–
273.15 K, 20000 kPa, x2 = 0.7249	860.8	–
273.15 K, 20000 kPa, x2 = 0.7977	855.2	–
273.15 K, 20000 kPa, x2 = 0.9131	845.3	–
273.15 K, 30000 kPa, x2 = 0	908	–
273.15 K, 30000 kPa, x2 = 0.1005	903.1	–
273.15 K, 30000 kPa, x2 = 0.2261	896.7	–
273.15 K, 30000 kPa, x2 = 0.2999	893	–
273.15 K, 30000 kPa, x2 = 0.3966	887.5	–
273.15 K, 30000 kPa, x2 = 0.5289	879.7	–
273.15 K, 30000 kPa, x2 = 0.6367	872.6	–
273.15 K, 30000 kPa, x2 = 0.7249	866.3	–
273.15 K, 30000 kPa, x2 = 0.7977	860.6	–
273.15 K, 30000 kPa, x2 = 0.9131	850.8	–
273.15 K, 40000 kPa, x2 = 0	912.9	–
273.15 K, 40000 kPa, x2 = 0.1005	908	–
273.15 K, 40000 kPa, x2 = 0.2261	901.7	–
273.15 K, 40000 kPa, x2 = 0.2999	897.9	–
273.15 K, 40000 kPa, x2 = 0.3966	892.5	–
273.15 K, 40000 kPa, x2 = 0.5289	884.8	–
273.15 K, 40000 kPa, x2 = 0.6367	877.7	–
273.15 K, 40000 kPa, x2 = 0.7249	871.4	–
273.15 K, 40000 kPa, x2 = 0.7977	865.8	–
273.15 K, 40000 kPa, x2 = 0.9131	856	–
273.15 K, 50000 kPa, x2 = 0	917.5	–
273.15 K, 50000 kPa, x2 = 0.1005	912.6	–
273.15 K, 50000 kPa, x2 = 0.2261	906.3	–
273.15 K, 50000 kPa, x2 = 0.2999	902.7	–
273.15 K, 50000 kPa, x2 = 0.3966	897.3	–
273.15 K, 50000 kPa, x2 = 0.5289	889.6	–
273.15 K, 50000 kPa, x2 = 0.6367	882.5	–
273.15 K, 50000 kPa, x2 = 0.7249	876.2	–
273.15 K, 50000 kPa, x2 = 0.7977	870.6	–
273.15 K, 50000 kPa, x2 = 0.9131	860.9	–
273.15 K, 60000 kPa, x2 = 0	921.9	–
273.15 K, 60000 kPa, x2 = 0.1005	917.1	–
273.15 K, 60000 kPa, x2 = 0.2261	910.9	–
273.15 K, 60000 kPa, x2 = 0.2999	907.2	–
273.15 K, 60000 kPa, x2 = 0.3966	901.8	–
273.15 K, 60000 kPa, x2 = 0.5289	894.1	–
273.15 K, 60000 kPa, x2 = 0.6367	887	–
273.15 K, 60000 kPa, x2 = 0.7249	880.8	–
273.15 K, 60000 kPa, x2 = 0.7977	875.2	–
273.15 K, 60000 kPa, x2 = 0.9131	865.5	–
273.15 K, 70000 kPa, x2 = 0	926.2	–
273.15 K, 70000 kPa, x2 = 0.1005	921.4	–
273.15 K, 70000 kPa, x2 = 0.2261	915.1	–
273.15 K, 70000 kPa, x2 = 0.2999	911.4	–
273.15 K, 70000 kPa, x2 = 0.3966	906.1	–
273.15 K, 70000 kPa, x2 = 0.5289	898.5	–
273.15 K, 70000 kPa, x2 = 0.6367	891.4	–
273.15 K, 70000 kPa, x2 = 0.7249	885.2	–
273.15 K, 70000 kPa, x2 = 0.7977	879.7	–
273.15 K, 70000 kPa, x2 = 0.9131	870.1	–
273.15 K, 80000 kPa, x2 = 0	930.3	–
273.15 K, 80000 kPa, x2 = 0.1005	925.5	–
273.15 K, 80000 kPa, x2 = 0.2261	919.3	–
273.15 K, 80000 kPa, x2 = 0.2999	915.6	–
273.15 K, 80000 kPa, x2 = 0.3966	910.3	–
273.15 K, 80000 kPa, x2 = 0.5289	902.7	–
273.15 K, 80000 kPa, x2 = 0.6367	895.7	–
273.15 K, 80000 kPa, x2 = 0.7249	889.5	–
273.15 K, 80000 kPa, x2 = 0.7977	883.9	–
273.15 K, 80000 kPa, x2 = 0.9131	874.3	–
273.15 K, 90000 kPa, x2 = 0	934.2	–
273.15 K, 90000 kPa, x2 = 0.1005	929.4	–
273.15 K, 90000 kPa, x2 = 0.2261	923.2	–
273.15 K, 90000 kPa, x2 = 0.2999	919.6	–
273.15 K, 90000 kPa, x2 = 0.3966	914.3	–
273.15 K, 90000 kPa, x2 = 0.5289	906.7	–
273.15 K, 90000 kPa, x2 = 0.6367	899.7	–
273.15 K, 90000 kPa, x2 = 0.7249	893.6	–
273.15 K, 90000 kPa, x2 = 0.7977	888	–
273.15 K, 90000 kPa, x2 = 0.9131	878.4	–
273.15 K, 100000 kPa, x2 = 0	938	–
273.15 K, 100000 kPa, x2 = 0.1005	933.3	–
273.15 K, 100000 kPa, x2 = 0.2261	927.1	–
273.15 K, 100000 kPa, x2 = 0.2999	923.4	–
273.15 K, 100000 kPa, x2 = 0.3966	918.2	–
273.15 K, 100000 kPa, x2 = 0.5289	910.6	–
273.15 K, 100000 kPa, x2 = 0.6367	903.6	–
273.15 K, 100000 kPa, x2 = 0.7249	897.5	–
273.15 K, 100000 kPa, x2 = 0.7977	891.9	–
273.15 K, 100000 kPa, x2 = 0.9131	882.3	–
273.15 K, 120000 kPa, x2 = 0	945.2	–
273.15 K, 120000 kPa, x2 = 0.1005	940.6	–
273.15 K, 120000 kPa, x2 = 0.2261	934.5	–
273.15 K, 120000 kPa, x2 = 0.2999	930.8	–
273.15 K, 120000 kPa, x2 = 0.3966	925.6	–
273.15 K, 120000 kPa, x2 = 0.5289	918	–
273.15 K, 120000 kPa, x2 = 0.6367	911.1	–
273.15 K, 120000 kPa, x2 = 0.7249	905	–
273.15 K, 120000 kPa, x2 = 0.7977	899.4	–
273.15 K, 120000 kPa, x2 = 0.9131	889.9	–
273.15 K, 140000 kPa, x2 = 0	952	–
273.15 K, 140000 kPa, x2 = 0.1005	947.3	–
273.15 K, 140000 kPa, x2 = 0.2261	941.3	–
273.15 K, 140000 kPa, x2 = 0.2999	937.7	–
273.15 K, 140000 kPa, x2 = 0.3966	932.5	–
273.15 K, 140000 kPa, x2 = 0.5289	924.9	–
273.15 K, 140000 kPa, x2 = 0.6367	918	–
273.15 K, 140000 kPa, x2 = 0.7249	911.9	–
273.15 K, 140000 kPa, x2 = 0.7977	906.4	–
273.15 K, 140000 kPa, x2 = 0.9131	896.8	–
293.15 K, 100 kPa, x2 = 0	875.1	0.888
293.15 K, 100 kPa, x2 = 0.1002	–	0.898
293.15 K, 100 kPa, x2 = 0.1005	870.2	–
293.15 K, 100 kPa, x2 = 0.2261	863.7	–
293.15 K, 100 kPa, x2 = 0.2327	–	0.949
293.15 K, 100 kPa, x2 = 0.3	–	1.001
293.15 K, 100 kPa, x2 = 0.3969	–	1.087
293.15 K, 100 kPa, x2 = 0.637	–	1.483
293.15 K, 100 kPa, x2 = 0.7975	–	1.975
293.15 K, 100 kPa, x2 = 0.9131	–	2.464
